# Several values for one entry are separate records, joined by “and”; a condition that tells them apart may be missing. Identical values can stand only once. Toxic doses and inconclusive results are not listed.
# System: P388 leukemia ip, CD2F1 mice, survival T/C
# Test: NCI In Vivo Anticancer Drug Screen. Data for tumor model P388 Leukemia (intraperitoneal) in CD2F1 (CDF1) mice
# Settings: endpoint: median survival time, higher = longer survival
# Procedure, shortened: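 Mice carrying the transplanted tumor received test compound or vehicle. Survival was recorded in each group, and the value is the treated-group measurement divided by that of the vehicle-treated control group.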
# [1] = dose: 50.0 mg/kg/injection, schedule: Q01DX009 (ip), vehicle: Klucel (hydroxypropylcellulose) (HPC)
# [2] = dose: 100.0 mg/kg/injection, schedule: Q01DX009 (ip), vehicle: Klucel (hydroxypropylcellulose) (HPC)
# [3] = dose: 50.0 mg/kg/injection, schedule: Q01DX005 (ip), vehicle: Klucel (hydroxypropylcellulose) (HPC)
# [4] = dose: 100.0 mg/kg/injection, schedule: Q01DX005 (ip), vehicle: Klucel (hydroxypropylcellulose) (HPC)
# [5] = dose: 200.0 mg/kg/injection, schedule: Q01DX005 (ip), vehicle: Klucel (hydroxypropylcellulose) (HPC)
# [6] = dose: 60.0 mg/kg/injection, schedule: Q01DX005 (ip), vehicle: saline with Tween-80
# [7] = dose: 120.0 mg/kg/injection, schedule: Q01DX005 (ip), vehicle: saline with Tween-80
# [8] = dose: 240.0 mg/kg/injection, schedule: Q01DX005 (ip), vehicle: saline with Tween-80
# [9] = dose: 50.0 mg/kg/injection, schedule: Q01DX009 (ip), vehicle: saline with Tween-80
# [10] = dose: 100.0 mg/kg/injection, schedule: Q01DX009 (ip), vehicle: saline with Tween-80
# [11] = dose: 200.0 mg/kg/injection, schedule: Q01DX009 (ip), vehicle: saline with Tween-80
# [12] = dose: 50.0 mg/kg/injection, schedule: Q01DX005 (ip), vehicle: saline with Tween-80
# [13] = dose: 100.0 mg/kg/injection, schedule: Q01DX005 (ip), vehicle: saline with Tween-80
# [14] = dose: 200.0 mg/kg/injection, schedule: Q01DX005 (ip), vehicle: saline with Tween-80
# [15] = dose: 50.0 mg/kg/injection, schedule: Q01DX009 (ip), vehicle: suspension in saline
# [16] = dose: 100.0 mg/kg/injection, schedule: Q01DX009 (ip), vehicle: suspension in saline
# [17] = dose: 200.0 mg/kg/injection, schedule: Q01DX009 (ip), vehicle: suspension in saline
structure (smiles),measurement,setting,value
O=C(CC[N+](=O)[O-])OCC1OC(O)C(OC(=O)CC[N+](=O)[O-])C(O)C1O (stereo not drawn),T/C,"dose: 12.5 mg/kg/injection, schedule: Q01DX005 (ip), vehicle: distilled water + Tween-80",100 % of control
same,T/C,"dose: 18.75 mg/kg/injection, schedule: Q01DX001 (ip), vehicle: saline + alcohol",100 % of control
same,T/C,"dose: 25.0 mg/kg/injection, schedule: Q01DX005 (ip), vehicle: distilled water + Tween-80",97 % of control
same,T/C,"dose: 37.5 mg/kg/injection, schedule: Q01DX001 (ip), vehicle: saline + alcohol",101 % of control
same,T/C,"dose: 50.0 mg/kg/injection, schedule: Q01DX005 (ip), vehicle: distilled water + Tween-80",100 % of control
same,T/C,"dose: 75.0 mg/kg/injection, schedule: Q01DX001 (ip), vehicle: saline + alcohol",109 % of control
same,T/C,"dose: 100.0 mg/kg/injection, schedule: Q01DX005 (ip), vehicle: distilled water + Tween-80",98 % of control
same,T/C,"dose: 200.0 mg/kg/injection, schedule: Q01DX005 (ip), vehicle: distilled water + Tween-80",100 % of control
CCOC(=O)Nc1nn(-c2ccc3ccccc3n2)c(=O)[nH]1,T/C,[1],113 % of control
same,T/C,[2],109 % of control
same,T/C,"dose: 200.0 mg/kg/injection, schedule: Q01DX009 (ip), vehicle: Klucel (hydroxypropylcellulose) (HPC)",118 % of control
c1ccc2c(c1)cnc1ccccc12,T/C,[3],97 % of control
same,T/C,[4],104 % of control
same,T/C,[5],104 % of control
COc1ccc(C2C3=C(CCCC3=O)Oc3cc4c(cc32)OCO4)c(OC)c1 (stereo not drawn),T/C,[6],99 % of control
same,T/C,[7],90 % of control
same,T/C,[8],90 % of control
Cc1ccc(NC(=S)NNC(=O)CN2C(=O)c3ccccc3C2=O)cc1,T/C,"dose: 12.5 mg/kg/injection, schedule: Q01DX001 (ip), vehicle: Klucel (hydroxypropylcellulose) (HPC)",93 % of control
same,T/C,"dose: 25.0 mg/kg/injection, schedule: Q01DX001 (ip), vehicle: Klucel (hydroxypropylcellulose) (HPC)",93 % of control
same,T/C,"dose: 50.0 mg/kg/injection, schedule: Q01DX001 (ip), vehicle: Klucel (hydroxypropylcellulose) (HPC)",89 % of control and 90 % of control
CCN(C=Nc1ccc(Cl)cc1C)CC,T/C,[1],105 % of control
same,T/C,[2],117 % of control
NC(=O)N1C(=O)C=CC1=O,T/C,[3],92 % of control
same,T/C,[4],104 % of control
CSC(=C(C#N)C#N)N1CC1,T/C,"dose: 12.5 mg/kg/injection, schedule: Q01DX001 (ip), vehicle: DMSO",103 % of control
same,T/C,"dose: 25.0 mg/kg/injection, schedule: Q01DX001 (ip), vehicle: DMSO",97 % of control
same,T/C,"dose: 50.0 mg/kg/injection, schedule: Q01DX001 (ip), vehicle: DMSO",96 % of control
CCNCC1c2ccccc2-c2nc3ccccc3nc2-c2ccccc21,T/C,"dose: 100.0 mg/kg/injection, schedule: Q04DX002 (ip), vehicle: saline with Tween-80",102 % of control
same,T/C,"dose: 200.0 mg/kg/injection, schedule: Q04DX002 (ip), vehicle: saline with Tween-80",98 % of control
CCOC(=O)CCCCCO[Si](c1ccccc1)(c1ccccc1)C(C)(C)C,T/C,[6],110 % of control
same,T/C,[7],99 % of control
same,T/C,[8],88 % of control
COC(=O)c1nn(-c2ccccc2)c2c1C(=O)c1ccccc1C2=O,T/C,[3],97 % of control
same,T/C,[4],92 % of control
same,T/C,[5],98 % of control
CCOC(=O)C1N=C(OCC)C(C)N=C1OCC (stereo not drawn),T/C,"dose: 60.0 mg/kg/injection, schedule: Q01DX005 (ip), vehicle: saline",101 % of control
same,T/C,"dose: 120.0 mg/kg/injection, schedule: Q01DX005 (ip), vehicle: saline",102 % of control
same,T/C,"dose: 240.0 mg/kg/injection, schedule: Q01DX005 (ip), vehicle: saline",100 % of control
CC1OC(O[C@@H]2C=C3CC[C@@H]4[C@H](CC[C@]5(C)[C@@H](c6ccc(=O)oc6)CC[C@]45O)[C@@]3(C)CC2)C(O)C(O)C1O (stereo partly drawn),T/C,"dose: 1.25 mg/kg/injection, schedule: Q01DX010 (sc), vehicle: steriod suspending solution",110 % of control
same,T/C,"dose: 2.5 mg/kg/injection, schedule: Q01DX010 (sc), vehicle: steriod suspending solution",110 % of control
same,T/C,"dose: 5.0 mg/kg/injection, schedule: Q01DX010 (sc), vehicle: steriod suspending solution",110 % of control
same,T/C,"dose: 10.0 mg/kg/injection, schedule: Q01DX010 (sc), vehicle: steriod suspending solution",115 % of control
NC(Cc1c[nH]c(=O)[nH]c1=O)C(=O)O (stereo not drawn),T/C,[3],96 % of control
same,T/C,[4],100 % of control
same,T/C,[5],88 % of control
CCCOc1c(C)cc(C(=O)CCN2CCOCC2)cc1Cl,T/C,[9],113 % of control
same,T/C,[10],112 % of control
same,T/C,[11],99 % of control
O=c1[nH]n(CCc2ccccn2)c(=O)c(Cl)c1Cl,T/C,[12],96 % of control
same,T/C,[13],100 % of control
same,T/C,[14],92 % of control
CN(C)/C=C(\C#N)C=O,T/C,"dose: 18.75 mg/kg/injection, schedule: Q01DX009 (ip), vehicle: saline sonified",118 % of control
same,T/C,"dose: 37.5 mg/kg/injection, schedule: Q01DX009 (ip), vehicle: saline sonified",109 % of control
CN(Cc1ccccc1)N=NCc1ccccc1,T/C,"dose: 12.5 mg/kg/injection, schedule: Q01DX005 (ip), vehicle: saline with Tween-80",103 % of control
same,T/C,"dose: 25.0 mg/kg/injection, schedule: Q01DX005 (ip), vehicle: saline with Tween-80",115 % of control
same,T/C,[12],154 % of control
CCCOC(=O)Nc1ccc2nc(N(C)C)sc2c1,T/C,[15],99 % of control
same,T/C,[16],97 % of control
same,T/C,[17],102 % of control
COC(=O)C1=C/CCCN(C(c2ccccc2)c2ccccc2)/C=C\1C(=O)OC,T/C,"dose: 100.0 mg/kg/injection, schedule: Q01DX001 (ip), vehicle: saline",99 % of control
same,T/C,"dose: 200.0 mg/kg/injection, schedule: Q01DX001 (ip), vehicle: saline",91 % of control
same,T/C,"dose: 400.0 mg/kg/injection, schedule: Q01DX001 (ip), vehicle: saline",95 % of control
CCOC(=O)C(C)NC(=O)OCc1ccccc1 (stereo not drawn),T/C,[6],101 % of control
same,T/C,[7],112 % of control
same,T/C,[8],116 % of control
CCOC(=O)C(=O)C1CC(c2ccccc2)=NNC1=O (stereo not drawn),T/C,[9],99 % of control
same,T/C,[10],103 % of control
same,T/C,[11],96 % of control
O=C1OCC(C(=O)N2Cc3cc4ccccc4nc3C2)C1CO (stereo not drawn),T/C,[10],94 % of control
same,T/C,[11],115 % of control
same,T/C,"dose: 400.0 mg/kg/injection, schedule: Q01DX009 (ip), vehicle: saline with Tween-80",105 % of control
CN(C)Cc1ccc(C(C)(C)C)cc1Br,T/C,"dose: 12.5 mg/kg/injection, schedule: Q01DX009 (ip), vehicle: water",97 % of control
same,T/C,"dose: 25.0 mg/kg/injection, schedule: Q01DX009 (ip), vehicle: water",95 % of control
same,T/C,"dose: 50.0 mg/kg/injection, schedule: Q01DX009 (ip), vehicle: water",99 % of control
same,T/C,"dose: 100.0 mg/kg/injection, schedule: Q01DX009 (ip), vehicle: water",95 % of control
same,T/C,"dose: 200.0 mg/kg/injection, schedule: Q01DX009 (ip), vehicle: water",89 % of control
COC(=O)c1nc2nnc(NC(=O)Nc3ccc(Cl)cc3)n2c(-c2ccc(Cl)cc2)c1C,T/C,[6],99 % of control
same,T/C,[7],99 % of control
same,T/C,[8],100 % of control
Nc1ccc(/C=C/c2ccnc3ccccc23)c(N)c1,T/C,"dose: 1.25 mg/kg/injection, schedule: Q01DX001 (ip), vehicle: Klucel (hydroxypropylcellulose) (HPC)",107 % of control
same,T/C,"dose: 2.5 mg/kg/injection, schedule: Q01DX001 (ip), vehicle: Klucel (hydroxypropylcellulose) (HPC)",108 % of control
same,T/C,"dose: 5.0 mg/kg/injection, schedule: Q01DX001 (ip), vehicle: Klucel (hydroxypropylcellulose) (HPC)",114 % of control
same,T/C,"dose: 10.0 mg/kg/injection, schedule: Q01DX001 (ip), vehicle: Klucel (hydroxypropylcellulose) (HPC)",107 % of control
CO/N=C1/OC(=O)OCC1(c1ccccc1)c1ccccc1,T/C,[12],100 % of control
same,T/C,[13],104 % of control
same,T/C,[14],100 % of control
O=[N+]([O-])c1ccc(NN=C(CO)CO)c([N+](=O)[O-])c1,T/C,[15],98 % of control
same,T/C,[16],98 % of control
same,T/C,[17],97 % of control
same,T/C,"dose: 400.0 mg/kg/injection, schedule: Q01DX009 (ip), vehicle: suspension in saline",97 % of control
c1ccc2c(Nc3ccc4c(c3)OCO4)c3c(nc2c1)CCCC3,T/C,"dose: 12.5 mg/kg/injection, schedule: Q01DX005 (ip), vehicle: Klucel (hydroxypropylcellulose) (HPC)",102 % of control
same,T/C,"dose: 25.0 mg/kg/injection, schedule: Q01DX005 (ip), vehicle: Klucel (hydroxypropylcellulose) (HPC)",101 % of control
same,T/C,[3],100 % of control and 112 % of control

# Source: PubChem BioAssay AID330 (DTP/NCI, 2004)
